# Read-outs that look alike come from different tables or passages of the source.
# Columns and labels:
# [1] = tested on: Bacillus subtilis PCI 219; assay: In vitro antibacterial activity, MIC (standard strain); assay type: cell-based; conditions: PCI219
# [2] = tested on: Proteus vulgaris IFO 3167; assay: as above; assay type: cell-based; conditions: IFO3167
# [3] = tested on: S. aureus IID 670 (Terajima); assay: as above; assay type: cell-based, Staphylococcus aureus; conditions: Staphylococcus aureus
# [4] = tested on: Clostridium perfringens KYA 13123; assay: microbe, parasite or virus in culture; assay type: cell-based; conditions: KYA13123
# [5] = tested on: Alcaligenes faecalis 0104002; assay: In vitro antibacterial activity, MIC (standard strain); assay type: cell-based; conditions: Alcaligenes faecalis, 0104002, Alcaligenes faecalis 0104002; 10^6 cells/ml; standard strain; read-out: MIC
# [6] = tested on: E. coli ML 4707; assay: as above; assay type: cell-based; conditions: Escherichia coli, ML4707; E. coli ML 4707; 10^6 cells/ml; standard strain; read-out: MIC
# [7] = tested on: S. pyogenes IID 692; assay: as above; assay type: cell-based; conditions: Streptococcus pyogenes, IID692; S. pyogenes IID 692; 10^6 cells/ml; standard strain; read-out: MIC
# [8] = tested on: S. agalactiae 4368; assay: In vitro antibacterial activity, MIC (clinical isolates); assay type: cell-based; conditions: Streptococcus agalactiae; S. agalactiae 4368; 10^6 cells/ml; clinical isolate; read-out: MIC
# [9] = tested on: P. mirabilis IID 994; assay: In vitro antibacterial activity, MIC (standard strain); assay type: cell-based; conditions: Proteus mirabilis, IID994
# [10] = tested on: P. aeruginosa IFO 12689; assay: as above; assay type: cell-based, Pseudomonas aeruginosa; conditions: Pseudomonas aeruginosa, IFO12689; P. aeruginosa IFO 12689; 10^6 cells/ml; standard strain; read-out: MIC
# [11] = tested on: B. fragilis 25285; assay: as above; assay type: cell-based, Bacteroides fragilis; conditions: Bacteroides fragilis, 25285, B. fragilis 25285; 10^6 cells/ml; standard strain; read-out: MIC
# [12] = tested on: Shigella sonnei IID 969; assay: as above; assay type: cell-based; conditions: IID969, 10^6 cells/ml
# Experimental: Experiment-1 In vitro antibacterial activity
# The in vitro antibacterial activity against gram-positive and gram-negative bacteria has been investivated.
# The minimum inhibitory concentration (MIC) was determined in accordance with the method recommended by Japan Society of Chemotherapy.
# [13] = tested on: S. marcescens GN 7577; assay: as above; assay type: cell-based; conditions: Serratia marcescens, GN7577; S. marcescens GN 7577; 10^6 cells/ml; standard strain; read-out: MIC
# [14] = tested on: Pseudomonas aeruginosa V-1; assay: as above; assay type: cell-based; conditions: V1; Pseudomonas aeruginosa V-1; 10^6 cells/ml; standard strain; read-out: MIC
# [15] = tested on: Klebsiella pneumoniae KY(GN)6445; assay: as above; assay type: cell-based; conditions: Klebsiella pneumoniae KY(GN)6445; 10^6 cells/ml; standard strain; read-out: MIC
# [16] = tested on: Yersinia enterocolitica IID 981; assay: as above; assay type: cell-based; conditions: IID981; Yersinia enterocolitica IID 981; 10^6 cells/ml; standard strain; read-out: MIC
# [17] = tested on: P. aeruginosa IID 1210; assay: as above; assay type: cell-based; conditions: Pseudomonas aeruginosa, IID1210; P. aeruginosa IID 1210; 10^6 cells/ml; standard strain; read-out: MIC
# [18] = tested on: S. pneumoniae IID 552; assay: as above; assay type: cell-based; conditions: Streptococcus pneumoniae, IID552; S. pneumoniae IID 552; 10^6 cells/ml; standard strain; read-out: MIC
# [19] = tested on: Staphylococcus aureus 209 P; assay: as above; assay type: cell-based
# [20] = tested on: S. pneumoniae 15; assay: In vitro antibacterial activity, MIC (clinical isolates); assay type: cell-based; conditions: Streptococcus pneumoniae; S. pneumoniae 15; 10^6 cells/ml; clinical isolate; read-out: MIC
# [21] = tested on: C. ramosum; assay: In vitro antibacterial activity, MIC (standard strain); assay type: cell-based; conditions: Thomasclavelia ramosa; C. ramosum; 10^6 cells/ml; standard strain; read-out: MIC
# [22] = tested on: S. pyogenes 4372; assay: In vitro antibacterial activity, MIC (clinical isolates); assay type: cell-based; conditions: Streptococcus pyogenes; S. pyogenes 4372; 10^6 cells/ml; clinical isolate; read-out: MIC
# [23] = tested on: S. agalactiae 4468; assay: as above; assay type: cell-based; conditions: Streptococcus agalactiae; S. agalactiae 4468; 10^6 cells/ml; clinical isolate; read-out: MIC
# [24] = tested on: Fusobacterium varium KYA 8501; assay: In vitro antibacterial activity, MIC (standard strain); assay type: cell-based; conditions: Fusobacterium varium, KYA8501, Fusobacterium varium KYA 8501; 10^6 cells/ml; standard strain; read-out: MIC
# [25] = tested on: E. coli ATCC 10536; assay: as above; assay type: cell-based; conditions: Escherichia coli, ATCC10536
# [26] = tested on: S. pneumoniae 2950; assay: In vitro antibacterial activity, MIC (clinical isolates); assay type: cell-based; conditions: Streptococcus pneumoniae; S. pneumoniae 2950; 10^6 cells/ml; clinical isolate; read-out: MIC
# [27] = tested on: Streptococcus pyogenes S-8; assay: In vitro antibacterial activity, MIC (standard strain); assay type: cell-based; conditions: S8; Streptococcus pyogenes S-8; 10^6 cells/ml; standard strain; read-out: MIC
# [28] = tested on: S. agalactiae 4049; assay: In vitro antibacterial activity, MIC (clinical isolates); assay type: cell-based; conditions: Streptococcus agalactiae; S. agalactiae 4049; 10^6 cells/ml; clinical isolate; read-out: MIC
# [29] = tested on: S. epidermidis IID 866; assay: In vitro antibacterial activity, MIC (standard strain); assay type: cell-based; conditions: Staphylococcus epidermidis
# [30] = tested on: S. pyogenes 3102; assay: In vitro antibacterial activity, MIC (clinical isolates); assay type: cell-based; conditions: Streptococcus pyogenes; S. pyogenes 3102; 10^6 cells/ml; clinical isolate; read-out: MIC
# [31] = Bacillus subtilis PCI 219, 10^6 cells/ml, standard strain, read-out: MIC
# [32] = Proteus vulgaris IFO 3167, 10^6 cells/ml, standard strain, read-out: MIC
# [33] = IID670, S. aureus IID 670 (Terajima), 10^6 cells/ml, standard strain, read-out: MIC
# [34] = P. mirabilis IID 994, 10^6 cells/ml, standard strain, read-out: MIC
# [35] = Staphylococcus aureus 209 P, 10^6 cells/ml, standard strain, read-out: MIC
# [36] = E. coli ATCC 10536, 10^6 cells/ml, standard strain, read-out: MIC
# [37] = IID866, S. epidermidis IID 866, 10^6 cells/ml, standard strain, read-out: MIC
SMILES,MIC [4] [µg/mL],MIC [5] [µg/mL],MIC [6] [µg/mL],MIC [7] [µg/mL],MIC [8] [µg/mL],MIC [10] [µg/mL],MIC [11] [µg/mL],MIC [12] [µg/mL],MIC [13] [µg/mL],MIC [14] [µg/mL],MIC [15] [µg/mL],MIC [16] [µg/mL],MIC [17] [µg/mL],MIC [18] [µg/mL],MIC [20] [µg/mL],MIC [21] [µg/mL],MIC [22] [µg/mL],MIC [23] [µg/mL],MIC [24] [µg/mL],MIC [26] [µg/mL],also measured
"NCC1CCN(c2c(F)cc3c(=O)c(C(=O)O)cn(C4CC4)c3c2Br)C1 (stereo not drawn) [Example 15, 7-(3-Aminomethyl-l-pyrrolidinyl)-8-bromo-l-cyclopropyl-6-fluoro-1,4-dihydro-4-oxo-3-quinolinecarboxylic acid]",0.1,0.2,0.025,0.05,0.05,0.78,≤ 0.05,0.0125,0.78,0.1,0.025,0.05,0.78,0.05,0.05,0.39,0.05,0.05,0.39,0.05,"MIC ([1]; Bacillus subtilis): 0.0125 µg/mL; MIC ([2]; Proteus vulgaris): 0.0125 µg/mL; MIC ([3]; IID670): 0.0125 µg/mL; MIC [9]: 0.0125 µg/mL; MIC ([19]; Staphylococcus aureus, 209P): 0.0125 µg/mL; MIC [25]: 0.0125 µg/mL; MIC [27]: 0.05 µg/mL; MIC [28]: 0.05 µg/mL; MIC ([29]; IID866): 0.0125 µg/mL; MIC [30]: 0.05 µg/mL"
"CC(C)NCC1CCN(c2c(F)cc3c(=O)c(C(=O)O)cn(C4CC4)c3c2F)C1.Cl (stereo not drawn) [Example 11, 1-Cyclopropyl-6,8-difluoro-1,4-dihydro-7-(3-isopropylaminomethyl-1-pyrrolidinyl)-4-oxo-3-quinolinecarboxylic acid hydrochloride]",0.2,1.56,0.05,0.2,0.2,3.13,0.78,0.05,3.13,1.56,0.1,0.2,3.13,0.39,0.2,0.78,0.2,0.2,3.13,0.2,"MIC [1, 31]: 0.025 µg/mL; MIC [2, 32]: 0.05 µg/mL; MIC [3, 33]: 0.05 µg/mL; MIC [9, 34]: 0.1 µg/mL; MIC [19, 35]: 0.05 µg/mL; MIC [25, 36]: 0.05 µg/mL; MIC [27]: 0.2 µg/mL; MIC [28]: 0.39 µg/mL; MIC [29, 37]: 0.05 µg/mL; MIC [30]: 0.2 µg/mL"
"CCNCC1CCN(c2c(F)cc3c(=O)c(C(=O)O)cn(C4CC4)c3c2Br)C1 (stereo not drawn) [Example 17, 8-Bromo-l-cyclopropyl-7-(3-ethylaminomethyl-l-pyrrolidinyl)-6-fluoro-1,4-dihydro-4-oxo-3-quinolinecarboxylic acid]",0.1,0.39,0.025,0.05,0.05,3.13,≤ 0.05,0.025,0.78,0.39,0.05,0.1,1.56,0.05,0.05,0.39,0.05,0.05,0.39,0.05,"MIC [1, 31]: 0.0125 µg/mL; MIC [2, 32]: 0.025 µg/mL; MIC [3, 33]: 0.025 µg/mL; MIC [9, 34]: 0.025 µg/mL; MIC [19, 35]: 0.0125 µg/mL; MIC [25, 36]: 0.025 µg/mL; MIC [27]: 0.05 µg/mL; MIC [28]: 0.05 µg/mL; MIC [29, 37]: 0.025 µg/mL; MIC [30]: 0.05 µg/mL"
"CN(C)CC1CCN(c2c(F)cc3c(=O)c(C(=O)O)cn(C4CC4)c3c2F)C1 (stereo not drawn) [Example 21, 1-Cyclopropyl-6,8-difluoro-1,4-dihydro-7-(3-dimethylaminomethyl-1-pyrrolidinyl)-4-oxo-3-quinolinecarboxylic acid]",0.2,0.78,0.05,0.2,0.2,3.13,0.2,0.05,1.56,0.39,0.05,0.1,3.13,0.2,0.2,0.78,0.2,0.2,3.13,0.1,"MIC [1, 31]: 0.05 µg/mL; MIC [2, 32]: 0.05 µg/mL; MIC [3, 33]: 0.05 µg/mL; MIC [9, 34]: 0.1 µg/mL; MIC [19, 35]: 0.05 µg/mL; MIC [25, 36]: 0.05 µg/mL; MIC [27]: 0.1 µg/mL; MIC [28]: 0.2 µg/mL; MIC [29, 37]: 0.05 µg/mL; MIC [30]: 0.1 µg/mL"
"CCNCC1CCN(c2cc3c(cc2F)c(=O)c(C(=O)O)cn3C2CC2)C1.Cl (stereo not drawn) [Example 7, 1-Cyclopropyl-7-(3-ethylaminomethyl-1-pyrrolidinyl)-6-fluoro-1,4-dihydro-4-oxo-3-quinolinecarboxylic acid hydrochloride]",0.2,1.56,0.05,0.39,0.39,3.13,25,0.05,6.25,1.56,0.1,0.39,3.13,0.39,0.39,6.25,0.2,0.39,12.5,0.39,"MIC [1, 31]: 0.025 µg/mL; MIC [2, 32]: 0.05 µg/mL; MIC [3, 33]: 0.1 µg/mL; MIC [9, 34]: 0.2 µg/mL; MIC [19, 35]: 0.1 µg/mL; MIC [25, 36]: 0.05 µg/mL; MIC [27]: 0.39 µg/mL; MIC [28]: 0.78 µg/mL; MIC [29, 37]: 0.05 µg/mL; MIC [30]: 0.2 µg/mL"

# Source: patent EP0183129A1, “Quinolonecarboxylic acid derivatives” (KYORIN PHARMACEUTICAL CO., LTD., priority 1984, dated 1986)
